Experimental data as given in publication PMC5177629, “Selective Estrogen Receptor Modulators: Cannabinoid Receptor Inverse Agonists with Differential CB1 and CB2 Selectivity” (Frontiers in Pharmacology, 2016).
Entries after “also recorded” stand apart in the source; their conditions may differ. Marks after values point to notes of the source that are not given here.

Columns and labels:
[1] = biological target: T1, human cannabinoid type-1 receptors (hCB1) (Homo sapiens, UniProt P21554); assay: Competition receptor binding with [3H]CP-55,940, CHO-hCB1 membranes; conditions: single 1 μM concentration, 0.2 nM [3H]CP-55,940, CHO-hCB1
T1 construct: host or cells: CHO cells (CHO-hCB1), membranes or intact cells
T1 sequence (P21554 whole entry): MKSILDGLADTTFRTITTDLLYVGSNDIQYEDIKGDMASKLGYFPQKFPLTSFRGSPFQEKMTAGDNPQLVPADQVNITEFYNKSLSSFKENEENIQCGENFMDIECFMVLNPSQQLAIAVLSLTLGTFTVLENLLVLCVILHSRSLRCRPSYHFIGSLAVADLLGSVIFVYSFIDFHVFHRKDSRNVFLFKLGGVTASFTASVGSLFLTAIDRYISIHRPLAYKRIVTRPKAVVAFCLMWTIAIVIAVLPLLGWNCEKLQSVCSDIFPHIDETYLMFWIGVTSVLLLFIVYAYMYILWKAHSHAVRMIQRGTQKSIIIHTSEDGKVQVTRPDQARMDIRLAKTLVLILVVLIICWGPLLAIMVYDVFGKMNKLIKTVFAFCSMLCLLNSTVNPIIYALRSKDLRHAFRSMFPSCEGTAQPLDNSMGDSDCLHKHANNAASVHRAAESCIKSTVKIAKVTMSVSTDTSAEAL
Protocol: (§1) In short, pellets were thawed on ice, combined in a 40 ml glass Dounce homogenizer and homogenized in 20 ml of cold buffer (50 mM HEPES at pH 7.4, 3 mM MgCl2, and 1 mM EGTA) using 10 strokes. Homogenates were then centrifuged at 40,000 × g for 10 min at 4°C. After discarding the supernatant, pellets were homogenized and centrifuged twice more. Final pellets were re-suspended in ice-cold 50 mM HEPES, pH 7.4, aliquoted and stored at -80°C for future use. Protein concentration was determined the same day, prior to freezing, using BCA^TM Protein Assay (Thermo Fisher Scientific, Waltham, MA, USA).
The final volume of each sample was 1 ml, containing 50 mM Tris-HCl buffer (pH 7.4), 0.05% bovine serum albumin, 5 mM MgCl2, increasing concentrations of non-radioactive competing SERM ligands, and either 100 μg of CHO-hCB1 or 50 μg of CHO-hCB2 membrane homogenates. […] Each sample condition was performed in triplicate and allowed to reach equilibrium at room temperature for 90 min. Reactions were terminated by rapid vacuum filtration through Whatman GF/B glass fiber filters (Brandel, Inc.), followed by four 4 ml washes of ice-cold filtration buffer (50 mM Tris at pH 7.4 and 0.05% BSA). Filter punches of individual samples were placed in scintillation vials containing 4 mls of ScintiverseTM BD cocktail scintillation fluid (Fisher Scientific, Pittsburg, PA, USA). Final counts were determined using liquid scintillation spectrophotometry (Tri Carb 2100 TR Liquid Scintillation Analyzer, Packard Instrument Company, Meriden, CT, USA) after overnight incubation.
(§2) Statistical analyses were conducted by utilizing GraphPad Prism v6.0g (GraphPad Software, Inc.; San Diego, CA, USA). IC50 values from competition receptor binding curves were derived by non-linear regression. […] Non-linear regression analysis of concentration-effect curves was also used to determine potency (ED50 or IC50) and efficacy (Emax or Imax) for modulation of GTPγS and adenylyl cyclase activity, respectively. All IC50, EC50, Ki, and Kb values were converted to pEC50, pIC50, pKi, and pKb values in order to permit use of parametric statistical analyses. For all experiments comparing three or more values, an one-way ANOVA was employed, followed by Dunnett’s or Tukey’s post hoc tests. For comparisons of two values, an unpaired t-test was utilized. To determine significant radioligand displacement or modulation of G-protein activity compared to basal levels, a one-sample t-test was employed.
(§3) For initial comparison of potential SERM binding to CBRs, 14 commercially available compounds from 5 structurally distinct classes (Figure 1) were subjected to a radioligand binding screen (Figure 2).

[2] = biological target: T1, human cannabinoid type-1 receptors (hCB1); assay: [35S]GTPγS binding, CHO-hCB1 membranes; assay type: biochemical; conditions: [35S]GTPγS binding, CHO-hCB1, compared with AM-251
Protocol: as §1
(§4) Non-specific binding was defined by radioactivity remaining in the presence of 10 μM of non-radioactive GTPγS. All reactions were incubated for 30 min at 30°C, terminated by filtration through Whatman GF/B glass fiber filters (Brandel, Inc.) and followed by four 4 ml washes of ice cold filtration buffer (50 mM HEPES, pH 7.4) containing 0.1% bovine serum albumin. Filter punches of individual samples were placed in scintillation vials containing 4 mls of ScintiverseTM BD cocktail scintillation fluid (Fisher Scientific, Pittsburg, PA, USA). Final counts were determined using liquid scintillation spectrophotometry (Tri Carb 2100 TR Liquid Scintillation Analyzer, Packard Instrument Company, Meriden, CT, USA) after overnight incubation.
as §2
(§5) CBRs are coupled to Gi/Go type G-proteins. Therefore, binding of agonists to CBRs leads to G-protein activation, antagonists produce no effect, and inverse agonists reduce basal G-protein activity produced by constitutively active receptors. SERMs were screened by examining the ability of a single receptor saturating concentration (10 μM) to modulate G-protein activity in membranes prepared from CHO-hCB1 and CHO-hCB2 cells. G-protein activation was quantified using employing [^35S]GTPγS, a non-hydrolyzable analog of GTP, that irreversibly binds to the G-proteins when activated.

[3] = biological target: T1, human cannabinoid type-1 receptors (hCB1); assay: Antagonism of CP-55,940 inhibition of adenylyl cyclase, intact CHO-hCB1 cells; assay type: cell-based
Protocol: (§6) Briefly, cells cultured between passages 4 and 15 were seeded into 24-well plates at a concentration of 6.5 million cells per plate and incubated overnight in a humidified incubator maintained at 37°C and 5% CO2. Growth media was removed the next day and replaced with media containing […] [^3H]adenine, 0.9g/L NaCl, and 0.5 mM isobutyl-methyl-xanthine (IBMX) for 2–3 h. Radioactive media was then removed and each well treated with 0.5 ml of varying concentrations of SERM compounds in a Krebs-Ringer-HEPES solution (10 mM HEPES, 110 mM NaCl, 25 mM Glucose, 55 mM Sucrose, 5 mM KCl, 1 mM MgCl2, 1.8 mM CaCl2, pH 7.4) containing 0.5 mM IBMX and 10 μM forskolin. Plates were then floated in a 37°C water bath for 15 min before reactions were terminated by addition of 50 μL of 2.2 N HCl to each well.
(§7) Reactions were then terminated by adding 50 μL of 2.2 N HCl to each well. [^3H]cAMP was isolated using alumina column chromatography and radioactivity quantified following addition of 10 mls of scintiverseTM BD cocktail scintillation fluid (Fisher Scientific, Pittsburg, PA, USA) by liquid scintillation spectrophotometry (Tri Carb 2100 TR Liquid Scintillation Analyzer, Packard Instrument Company, Meriden, CT, USA).
as §2
(§8) IC50 and Kb values were converted to pIC50 and pKb values (pIC50 = -Log[IC50] or pKb = -Log[Kb], respectively) to allow use of parametric statistics for comparison.

[4] = biological target: T2, human cannabinoid type-2 receptors (hCB2) (Homo sapiens, UniProt P34972); assay: [35S]GTPγS binding, CHO-hCB2 membranes; assay type: biochemical; conditions: for intrinsic activity at hCB2Rs (partial or full inverse agonist): [35S]GTPγS binding, CHO-hCB2, 10 μM, compared with AM-630
T2 construct: expressed in transfected cells; host or cells: CHO cells (CHO-hCB2), membranes or intact cells
T2 sequence (P34972 whole entry): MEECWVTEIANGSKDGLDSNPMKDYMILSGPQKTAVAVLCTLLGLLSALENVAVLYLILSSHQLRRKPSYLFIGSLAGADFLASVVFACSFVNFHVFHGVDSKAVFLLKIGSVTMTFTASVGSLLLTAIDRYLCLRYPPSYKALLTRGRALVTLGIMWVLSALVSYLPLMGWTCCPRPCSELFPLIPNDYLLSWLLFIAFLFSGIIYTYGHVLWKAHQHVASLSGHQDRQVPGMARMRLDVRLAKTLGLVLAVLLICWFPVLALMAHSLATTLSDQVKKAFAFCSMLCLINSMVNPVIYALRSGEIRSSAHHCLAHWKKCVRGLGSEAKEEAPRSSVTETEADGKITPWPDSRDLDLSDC
Protocol: as §1, §4, §2, §5

[5] = biological target: T2, human cannabinoid type-2 receptors (hCB2); assay: Adenylyl cyclase assay (forskolin-stimulated cAMP), intact CHO-hCB2 cells; assay type: cell-based
Protocol: as §6, §2
To provide a second measure of intrinsic activity, the ability of SERMs to modulate intracellular levels of cAMP in intact cells was examined (Figure 6). CBRs couple to Gi/Go-proteins, and thus cannabinoid agonists inhibit activity of the downstream intracellular effector adenylyl cyclase, reducing intracellular cAMP levels.

[6] = biological target: T2, human cannabinoid type-2 receptors (hCB2); assay: Antagonism of CP-55,940 inhibition of adenylyl cyclase, intact CHO-hCB2 cells; assay type: cell-based
Protocol: as §6, §7, §2, §8

[7] = biological target: T2, human cannabinoid type-2 receptors (hCB2); assay: Competition receptor binding with [3H]CP-55,940, CHO-hCB2 membranes; conditions: single 1 μM concentration, 0.2 nM [3H]CP-55,940, CHO-hCB2
Protocol: as §1, with “Membrane homogenates were prepared for competition receptor binding and [^35S]GTPγS binding studies by using pellets previously frozen of CHO-hCB1 or CHO-hCB2 cells as described in ([Franks et al., 2014]). In” for “In”
The final volume of each sample was 1 ml, containing 50 mM Tris-HCl buffer (pH 7.4), 0.05% bovine serum albumin, 5 mM MgCl2, increasing concentrations of non-radioactive competing SERM ligands, and either 100 μg of CHO-hCB1 or 50 μg of CHO-hCB2 membrane homogenates. Non-specific binding was defined by radioactivity remaining in the presence of 1 μM of the non-radioactive CB1/CB2 agonist WIN-55,212-2. Each sample condition was performed in triplicate and allowed to reach equilibrium at room temperature for 90 min. Reactions were terminated by rapid vacuum filtration through Whatman GF/B glass fiber filters (Brandel, Inc.), followed by four 4 ml washes of ice-cold filtration buffer (50 mM Tris at pH 7.4 and 0.05% BSA). Filter punches of individual samples were placed in scintillation vials containing 4 mls of ScintiverseTM BD cocktail scintillation fluid (Fisher Scientific, Pittsburg, PA, USA). Final counts were determined using liquid scintillation spectrophotometry (Tri Carb 2100 TR Liquid Scintillation Analyzer, Packard Instrument Company, Meriden, CT, USA) after overnight incubation.
Statistical analyses were conducted by utilizing GraphPad Prism v6.0g (GraphPad Software, Inc.; San Diego, CA, USA). IC50 values from competition receptor binding curves were derived by non-linear regression. Experimental IC50 values were converted to Ki values (a measure of receptor affinity) by using the Cheng–Prusoff equation ([Cheng and Prusoff, 1973]). Non-linear regression analysis of concentration-effect curves was also used to determine potency (ED50 or IC50) and efficacy (Emax or Imax) for modulation of GTPγS and adenylyl cyclase activity, respectively. All IC50, EC50, Ki, and Kb values were converted to pEC50, pIC50, pKi, and pKb values in order to permit use of parametric statistical analyses. For all experiments comparing three or more values, an one-way ANOVA was employed, followed by Dunnett’s or Tukey’s post hoc tests. For comparisons of two values, an unpaired t-test was utilized. To determine significant radioligand displacement or modulation of G-protein activity compared to basal levels, a one-sample t-test was employed.
as §3

## 4-hydroxy-tamoxifen [4OH-TX]
[1]
  displacement of [3H]CP-55,940 from hCB1Rs: approximately 50%
[2]
  intrinsic activity at CB1Rs (partial or full inverse agonist): partial

## Cc1c(C(=O)NN2CCOCC2)nn(-c2ccc(Cl)cc2Cl)c1-c1ccc(I)cc1 [AM-281]
[3]; AM-281 1 μM pre-incubation
  fold decrease in potency of CP-55,940, CHO-hCB1: 16 fold
[3]; CHO-hCB1 cells, pre-incubation 30 min: OSP, NAF, BAZ 10 μM, RAL 2 μM, AM-281 1 μM
  IMAX of CP-55,940 after pre-incubation with the drug: 35.7 ± 0.9%
[3]; calculated from shift of CP-55,940 curve, intact CHO-hCB1 cells, read-out: Kb (antagonist dissociation constant), CHO-hCB1
  Kb: 155 nM
[3]; intact CHO-hCB1 cells, mean ± SEM
  pKb, CHO-hCB1: 6.810 ± 0.061^a

## CN(C)CCOc1ccc(/C(=C(/CCCl)c2ccccc2)c2ccc(O)cc2)cc1 [4OH-TOR, 4-hydroxy-toremifene]
[1]
  displacement of [3H]CP-55,940 from hCB1Rs: approximately 50%

## CC/C(=C(\c1ccc(O)cc1)c1ccc(OCCNC)cc1)c1ccccc1 [ENDX, endoxifen]
[1]
  displacement of [3H]CP-55,940 from hCB1Rs: approximately 50%

## COc1ccc(C(=O)c2c(C)n(CCN3CCOCC3)c3cc(I)ccc23)cc1 [AM-630]
[4]; CHO-hCB2 membranes, 10 μM
  reduction of G-protein activity, hCB2Rs: 34%
[5]; elevation of cAMP
  EMAX, Intracellular [3H]cAMP: 214 ± 6.5^b %
[5]; increase of cAMP, 10 μM forskolin, read-out: EC50, Intracellular [3H]cAMP
  EC50: 398 nM
[5]; mean ± SEM
  pEC50, Intracellular [3H]cAMP: 6.40 ± 0.096^c
[6]; AM-630 1 μM pre-incubation
  fold parallel shift-to-the-right of CP-55,940 concentration-effect curve, CHO-hCB2: 33 fold
[6]; CHO-hCB2 cells, pre-incubation 30 min: OSP, NAF 10 μM, RAL, BAZ 2 μM, AM-630 1 μM
  IMAX of CP-55,940 after pre-incubation with the drug: 31.7 ± 0.3%
[6]; calculated from shift of CP-55,940 curve, intact CHO-hCB2 cells, read-out: Kb (antagonist dissociation constant), CHO-hCB2
  Kb: 55.4 nM
[6]; intact CHO-hCB2 cells, mean ± SEM
  pKb, CHO-hCB2: 7.26 ± .064^b

## Oc1ccc2c(c1)CC[C@H](c1ccccc1)[C@@H]2c1ccc(OCCN2CCCC2)cc1 [LAS, lasofoxifene]
[4]
  intrinsic activity at hCB2Rs (partial or full inverse agonist): partial inverse agonist activity

## CC(C)N1CCN(c2ccc(C(=O)c3c(-c4ccc(O)cc4)sc4cc(O)ccc34)cc2)CC1 [Y-134]
[4]
  intrinsic activity at hCB2Rs (partial or full inverse agonist): partial inverse agonist activity
[2]
  intrinsic activity at CB1Rs (partial or full inverse agonist): partial

## CC1=C(c2ccc(O)cc2)[C@H](c2ccc(OCCN3CCCCC3)cc2)Oc2cc(O)ccc21 [acolbifene]
[1]
  displacement of [3H]CP-55,940 from hCB1Rs: fails to displace; also recorded: did not produce any displacement
[7]
  displacement of [3H]CP-55,940 from hCB2Rs: fails to displace; also recorded: did not produce any displacement
